These results are taken from paper PMC7290365, “Human Induced Pluripotent Stem Cell-Derived 3D-Neurospheres Are Suitable for Neurotoxicity Screening” (Cells, 2020).

One data set concerns humans. Conditions: ref PubChem database (https://pubchem.ncbi.nlm.nih.gov/); cited from earlier work.
For data set [1], the system named is hiPSC-derived 3D neurospheres. As to the kind of experiment: cells. It counts as cell-based, human. Conditions: for EC10 / EC25 / EC50: Homo sapiens, 72 h. How it is done:
After thawing, NSCs (generated as detailed above) were cultured on POL/L (0.002%/1 µg/cm^2) coated plates (50,000 cells/cm^2). When reached 100% confluence NSCs were propagated with Accutase treatment and single-cell suspension was plated onto a low-adherent 96-well plate with 10,000 cells/well in NMM medium. […] Samples were collected at Day 0 (D0), Day 2 (D2), and weekly intervals from the end of the 1st week (D7) until the end of the 6th week (D14, D21, D28, D35, and D42).
Eleven well-known compounds were tested in 7 different concentrations to generate concentration-response curves. The tested compounds with the used concentrations are detailed in Table S3. […] In each assay plate, 4 technical replicates were applied from each sample and 3 biological replicate assays were run (n = 3). The 3D cell cultures were exposed to the toxicants for 72 h (exposure schemes are detailed in Figure 5A or Figure 6A or Figure 7A). Vehicle control was used as a regular medium supplemented with 0.1% DMSO.
ATP viability assay was performed with CellTiter-Glo® 3D Cell Viability Assay, according to the manufacturer’s protocol (Promega). Neurospheres were lysed with 100 μL CellTiter-Glo® 3D Reagent for 60 min at RT. Luminescence signal was recorded with a Thermo VarioScan Flash (Thermo Fisher Scientific) plate reader.
All results were analyzed using Prism 5 (GraphPad Software, La Jolla, CA, USA) and handled in Microsoft Office 2010 (Microsoft, Redmond, WA, USA) software. For normalization of the concentration response, the average values of positive control were used as 0% and the average of vehicle control served as 100%. Four parameter curve fitting methods were used to determine EC10 and EC50 values, where the data on the graphs represent the average of three biological replicates. The “n” value corresponds to the number of biological replicates for each tested concentration. Analysis of data is presented as the mean ± SEM. Significance of data was determined with paired T test for RT-qPCR (* p < 0.01) and with One-way ANOVA for concentration response (* p < 0.05; ** p < 0.01).

The next data set deals with XBP1(S). Put plainly: XBP1 assay of endoplasmic reticulum stress. The format is cell-based, human. The note with it: listed as ROT. How it is done: Upon accumulation of unfolded proteins in the endoplasmic reticulum (ER), a 26-nucleotide fragment from the X-box binding protein 1 mRNA (XBP1(U)) is removed with a special splicing mechanism. This shorter mRNA (XBP1(S)) is a frequently used marker of ER-stress. To study the expression of XBP1(S), previously described primers and our own primers were used (Table S2). As a positive control, cells were treated with 5 µM and 10 µM Tunicamycin to induce ER-stress. RT-PCR reactions were performed and analyzed as above, using Phusion Hot Start II High-Fidelity DNA Polymerase and 20 ng of the cDNA samples.

The subject of data set [2] is LUHMES cells. The note with it: cited from earlier work.
The test system of data set [3] is in vitro multicellular cytotoxicity. Conditions: multicellular cytotoxicity "comptox" data; ref EPA's Chemical dashboard (https://comptox.epa.gov/dashboard); cited from earlier work.
The subject of data set [4] is hiPSC-derived 3D neurospheres. As to the kind of experiment: TUNEL apoptosis assay on cryosectioned 3D neurospheres. The note with it: 0.5 µM for 72 h; average, in each stage (D21, D28, D42). It counts as cell-based, human.
Experimental: Embedding and cryosectioning of 3D samples were performed as above. To detect apoptotic activity, the DeadEnd™ Colorimetric TUNEL System (Promega) was used on the middle cryosections (highest diameter) of the spheroids, following the instructions of the manufacturer. In brief, apoptosis was detected by immersing the slides in PBS for 5 min (at RT), adding 20 μg/mL Proteinase K solution and incubating for 10–30 min (at RT). After 5–10 min treatment in Equilibration buffer, recombinant terminal deoxynucleotidyl transferase (rTdT) was added to the reaction mixture. Next, the sections were incubated for 60 min at 37 °C inside of a humidified chamber to allow the end-labelling reaction to occur. The reaction was terminated by immersing the slides in saline-sodium citrate for 15 min (RT). Endogenous peroxidases were blocked by immersing the slides in 0.3% hydrogen peroxide in PBS for 3–5 min (RT). Streptavidin-HRP was added to slides, incubated for 30 min (RT), stained with diaminobenzidine (DAB) solution for 5 min until a light brown background appeared. For hematoxylin–eosin (HE) staining Mayer’s Hematoxylin solution was used for 3 min. […] Five Ctrl and five ROT-treated spheroids were randomly selected, and middle sections were analyzed from each differentiation stage (D21, D28, and D42) samples in three experiments (n = 3).
The subject of data set [5] is LUHMES cells. Conditions: LUHMES cells exposed; literature value, reference not given; cited from earlier work.

Each structure is given as a SMILES string. Where two headings read alike, the source gives them in different places. Bounds are passed on as bounds.

As for `C=C(C)[C@H]1Cc2c(ccc3c2O[C@@H]2COc4cc(OC)c(OC)cc4[C@@H]2C3=O)O1` [Rotenone], the “Probable lethal dose in human” value in the data set on humans is 300 to 500 mg/kg. Besides, the EC10 (in general, the concentration at which the effect reaches the 10% level) in data set [1] (read-out: EC10 (cell viability), D21 3D neurospheres, 72 h exposure) was 12.9 nM; in data set [1] (read-out: EC10 (cell viability), D28 3D neurospheres, 72 h exposure), 6.46 nM; in data set [1] (read-out: EC10 (cell viability), D42 3D neurospheres, 72 h exposure), 4.47 nM. Further, the EC25 (in general, the concentration needed for an effect of 25%) in data set [1] (read-out: EC25 (cell viability), D21 3D neurospheres, 72 h exposure) was 56.2 nM; in data set [1] (read-out: EC25 (cell viability), D28 3D neurospheres, 72 h exposure), 34.7 nM; in data set [1] (read-out: EC25 (cell viability), D42 3D neurospheres, 72 h exposure) it was 33.1 nM. Also, the EC50 (in general, the midpoint of the concentration-response curve) is 245 nM in data set [1] (read-out: EC50 (cell viability), D21 3D neurospheres, 72 h exposure); 182 nM in data set [1] (read-out: EC50 (cell viability), D28 3D neurospheres, 72 h exposure); 240 nM in data set [1] (read-out: EC50 (cell viability), D42 3D neurospheres, 72 h exposure). The “ER-stress inducing effect (XBP1 assay)” value in the data set on XBP1(S) is recorded as “no ER-stress inducing effect”. Also, the “Neurite outgrowth of LUHMES cells (in words)” value in the data set with LUHMES cells [2] is “prominent neurite growth inhibition”. The “In vitro cytotoxicity limit” value in data set [3] is recorded as 0.22 µM. Further, the “Increase in the apoptotic cell number compared to the control” value in data set [4] is given as 15%.
With `CCCC(CCC)C(=O)O` [Valproic acid, 2-Propylpentanoic acid], in data set [1] (D21 3D neurospheres, 72 h exposure), the “EC50 (cell viability)” value is greater than 2.6 log µM. Moreover, the “Effect on viability of 3D neurospheres (in words)” value in data set [1] (D21 stage, 72 h exposure, investigated concentration range) is “minimal effect on the viability”. In addition, the EC10 in data set [1] (D21 3D neurospheres, 72 h exposure, read-out: EC10 (cell viability) (converted)) was greater than 398000 nM; in data set [1] (D28 3D neurospheres, 72 h exposure, read-out: EC10 (cell viability) (converted)) it was greater than 398000 nM; in data set [1] (D42 3D neurospheres, 72 h exposure, read-out: EC10 (cell viability) (converted)), greater than 398000 nM. The 25% effect concentration (EC25) in data set [1] (D21 3D neurospheres, 72 h exposure, read-out: EC25 (cell viability) (converted)) was greater than 398000 nM; in data set [1] (D28 3D neurospheres, 72 h exposure, read-out: EC25 (cell viability) (converted)), greater than 398000 nM; in data set [1] (D42 3D neurospheres, 72 h exposure, read-out: EC25 (cell viability) (converted)), greater than 398000 nM. Further, the concentration giving a half-maximal response (EC50) was greater than 398000 nM in data set [1] (D21 3D neurospheres, 72 h exposure, read-out: EC50 (cell viability) (converted)); greater than 398000 nM in data set [1] (D28 3D neurospheres, 72 h exposure, read-out: EC50 (cell viability) (converted)); greater than 398000 nM in data set [1] (D42 3D neurospheres, 72 h exposure, read-out: EC50 (cell viability) (converted)); greater than 100000 nM in the data set with LUHMES cells [5]. In addition, the “Effect on cell viability (in words)” value in data set [1] (investigated concentration range, D21, D28, D42 neurospheres) is recorded as “no detectable impact”. Further, the “Neurite outgrowth of LUHMES cells (in words)” value with LUHMES cells [2] is recorded as “significant inhibition of neurite outgrowth”.
